Reference: the NIST ThermoML archive (doi:10.1016/j.jct.2014.03.027)
± gives the expanded uncertainty stated by the source.

Test: molar enthalpy of vaporization or sublimation
Settings: 298.15 K, Static calorimetry

| molar enthalpy (Liquid) | molar enthalpy (Crystal) | Structure (SMILES) |
| --- | --- | --- |
| 15.9 ± 0.287 kcal/mol |  | COc1ccccc1C(C)=O [2'-methoxyacetophenone] |
| 16.2 ± 0.287 kcal/mol |  | COc1cccc(C(C)=O)c1 [3'-methoxyacetophenone] |
|  | 21 ± 0.335 kcal/mol | COc1ccc(C(C)=O)cc1 [4'-methoxyacetophenone] |
